# Assay results as given in patent US20250268884A1, “Deuterated Domperidone for Treating Gastroparesis” (CinDome Pharma, Inc., priority 2022, published 2025).
# Assays:
# [1] = tested on: cardiac repolarization (QTcF) in healthy subjects; details: human, in vivo
# Source text: The same linear model was used for moxifloxacin.
# The same linear model with a treatment effect-specific intercept as in the concentration-QTc analysis was used in the assay sensitivity analysis for moxifloxacin.
# [2] = tested on: cardiac conduction (QRS interval) in healthy subjects; test: Thorough QT study, placebo-corrected change-from-baseline QRS (ΔΔQRS); details: 400 mg moxifloxacin (Treatment C)
# Procedure: (§1) Categorical T-wave morphology analysis and measurement of PR and QRS intervals were fully performed manually using a semi-automated process in 3 of the 10 ECG replicates at each time point. Final quality control and diagnostic interpretations were performed by the study cardiologist.
# An unstructured covariance structure was used to specify the repeated measures at post-dose time points for subject within treatment period. The model also included a subject-specific random effect.
# [3] = tested on: cardiac conduction (PR interval) in healthy subjects; test: Thorough QT study, placebo-corrected change-from-baseline PR (ΔΔPR); details: 400 mg moxifloxacin (Treatment C)
# Source text: The secondary endpoints were: • Change-from-baseline QTcF, HR, PR, QRS intervals (ΔQTcF, ΔHR, ΔPR, and ΔQRS) • Placebo-corrected change-from-baseline HR, PR, and QRS (ΔΔHR, ΔΔPR, ΔΔQRS) • Categorical outliers for QTcF, HR, PR, and QRS • Frequency of treatment-emergent changes of T-wave morphology and U-waves presence
# as §1
# An unstructured covariance structure was used to specify the repeated measures at post-dose time points for subject within treatment period. The model also included a subject-specific random effect. Treatment A: 30 mg CIN-102 [representing approximate steady-state therapeutic exposures in subject population]; Treatment B: 100 mg CIN-102 [representing potential steady-state supratherapeutic exposures in subjects]; Treatment C: 400 mg open-label moxifloxacin
# [4] = Thorough QT study, plasma pharmacokinetics; type: in vivo, human; details: 400 mg single dose, healthy subjects
# Source text: Blood samples for PK determination were drawn at the same time points immediately after the ECG extractions.
# [5] = tested on: heart rate in healthy subjects; test: Thorough QT study, placebo-corrected change-from-baseline HR (ΔΔHR); type: in vivo, human; details: 400 mg moxifloxacin (Treatment C)
# healthy subjects = test: Thorough QT study, categorical outliers and T-wave morphology
# Procedure: Categorical T-wave morphology analysis and measurement of PR and QRS intervals were fully performed manually using a semi-automated process in 3 of the 10 ECG replicates at each time point.
# Treatment A: 30 mg CIN-102 [representing approximate steady-state therapeutic exposures in subject population]; Treatment B: 100 mg CIN-102 [representing potential steady-state supratherapeutic exposures in subjects]; Treatment C: 400 mg open-label moxifloxacin; Treatment D: CIN-102 placebo. A subject can appear in more than 1 category. The denominator (Total) is defined as the number of subjects or time points in the QT/QTc population for each treatment.
# [6] = tested on: cardiac repolarization (QTcF) in healthy subjects; test: Thorough QT study, by-time point analysis of ΔΔQTcF; details: for ΔΔQTcF LS Mean: 400 mg moxifloxacin (Treatment C)
# Procedure: The primary objective of this study was to assess the effect of CIN-102 on cardiac repolarization based on baseline and placebo-corrected change in corrected QT interval using Fridericia's formula (QTcF) in healthy subjects using a concentration-QTc analysis (primary analysis). Serial ECGs were extracted from continuous ECG recordings at prespecified time points starting at least one hour prior to dosing and ending approximately 48 hours post-dose in each period.
# Primary analysis was based on concentration-QTc modeling of the relationship between plasma drug concentrations and change-from-baseline QTcF (ΔQTcF) with the intent to exclude an effect of placebo-corrected ΔQTcF (ΔΔQTcF) >10 milliseconds (ms) at clinically relevant plasma levels.
# The study was a randomized, partially double-blind, active- and placebo-controlled, single dose, four-period, crossover study in healthy subjects 18-55 years of age.
# In each treatment period, continuous 12-lead ECGs were recorded starting at least one hour prior to dosing and ending approximately 48 hours post-dose. Twelve-lead ECGs were extracted in up to 10 replicates at the central ECG laboratory (ERT, Philadelphia, PA) at the following time points in each period: at 3 time points within one hour prior to dosing (−45, −30 and −15 minutes) and at 0.5, 1, 1.5, 2, 2.5, 3, 4, 5, 6, 8, 12, 24, 36, and 48 hours after each dose. Subjects were supinely resting for at least 10 minutes before and 5 minutes after each time point. When ECG extractions coincided with safety, ECGs, vital signs assessment, and blood draws, procedures were carried out in said order. No PK or other laboratory draws were performed and the subject was not approached until at least 5 minutes had elapsed after the 5-minute window for 12-lead ECG extraction for QT analysis.
# ECG intervals were measured by the core laboratory in a blinded manner using the Early Precision QT technique (EPQT). The ECG database was locked before any statistical analysis was undertaken.
# At each nominal time point specified in the protocol, up to 10 ECG replicates were extracted with TQT Plus methods. All readable cardiac cycles from these ECG replicates were assessed for multiple quality metrics, including beat stability, HR changes, noise, and other parameters, and were categorized into high and low confidence rank. All low confidence beats were fully reviewed and adjudicated manually by ECG technicians using pass-fail criteria. The beats found acceptable by manual review were included in the analysis.
# An unstructured covariance structure was used to specify the repeated measures at post-dose time points for subject within treatment period. The model also included a subject-specific random effect. Treatment A: 30 mg CIN-102 [representing approximate steady-state therapeutic exposures in subject population] Treatment B: 100 mg CIN-102 [representing potential steady-state supratherapeutic exposures in subjects] Treatment C: 400 mg open-label moxifloxacin.
# [7] = 400 mg moxifloxacin (Treatment C), Total 51 subjects
# [8] = 400 mg moxifloxacin (Treatment C), Total 762 time points
# [9] = Treatment C: 400 mg open-label moxifloxacin, of 51 subjects
# [10] = Treatment C: 400 mg open-label moxifloxacin, of 762 time points
compound,measurement,setting,value
COc1c(N2C[C@@H]3CCCN[C@@H]3C2)c(F)cc2c(=O)c(C(=O)O)cn(C3CC3)c12 [moxifloxacin],lower bound of the 2-sided CI of the predicted QT effect,[1],above 5 ms
same,ΔΔQRS LS Mean,[2]; 0.5 H Post Dose,0.1 ms
same,ΔΔQRS LS Mean,[2]; 1 H Post Dose,0.5 ms
same,ΔΔQRS LS Mean,[2]; 1.5 H Post Dose,0.3 ms
same,ΔΔQRS LS Mean,[2]; 2 H Post Dose,0.4 ms
same,ΔΔQRS LS Mean,[2]; 2.5 H Post Dose,0.4 ms
same,ΔΔQRS LS Mean,[2]; 3 H Post Dose,0.6 ms
same,ΔΔQRS LS Mean,[2]; 4 H Post Dose,0.1 ms
same,ΔΔQRS LS Mean,[2]; 5 H Post Dose,0.7 ms
same,ΔΔQRS LS Mean,[2]; 6 H Post Dose,-0.1 ms
same,ΔΔQRS LS Mean,[2]; 8 H Post Dose,0.5 ms
same,ΔΔQRS LS Mean,[2]; 12 H Post Dose,0.1 ms
same,ΔΔQRS LS Mean,[2]; 24 H Post Dose,0.0 ms
same,ΔΔQRS LS Mean,[2]; 36 H Post Dose,0.5 ms
same,ΔΔQRS LS Mean,[2]; 48 H Post Dose,0.6 ms
same,ΔΔPR LS Mean,[3]; 0.5 H Post Dose,-3.4 ms
same,ΔΔPR LS Mean,[3]; 1 H Post Dose,-2.9 ms
same,ΔΔPR LS Mean,[3]; 1.5 H Post Dose,-3.6 ms
same,ΔΔPR LS Mean,[3]; 2 H Post Dose,-2.5 ms
same,ΔΔPR LS Mean,[3]; 2.5 H Post Dose,-1.3 ms
same,ΔΔPR LS Mean,[3]; 3 H Post Dose,-2.7 ms
same,ΔΔPR LS Mean,[3]; 4 H Post Dose,-2.0 ms
same,ΔΔPR LS Mean,[3]; 5 H Post Dose,-2.0 ms
same,ΔΔPR LS Mean,[3]; 6 H Post Dose,-3.0 ms
same,ΔΔPR LS Mean,[3]; 8 H Post Dose,-0.9 ms
same,ΔΔPR LS Mean,[3]; 12 H Post Dose,-0.0 ms
same,ΔΔPR LS Mean,[3]; 24 H Post Dose,-2.5 ms
same,ΔΔPR LS Mean,[3]; 36 H Post Dose,0.9 ms
same,ΔΔPR LS Mean,[3]; 48 H Post Dose,-0.3 ms
same,geometric mean peak moxifloxacin concentration,[4],1552.6 ng/mL
same,ΔΔHR LS Mean,[5]; 0.5 H Post Dose,1.9 bpm
same,ΔΔHR LS Mean,[5]; 1 H Post Dose,2.2 bpm
same,ΔΔHR LS Mean,[5]; 1.5 H Post Dose,1.0 bpm
same,ΔΔHR LS Mean,[5]; 2 H Post Dose,1.3 bpm
same,ΔΔHR LS Mean,[5]; 2.5 H Post Dose,−0.3 bpm
same,ΔΔHR LS Mean,[5]; 3 H Post Dose,−0.0 bpm
same,ΔΔHR LS Mean,[5]; 4 H Post Dose,0.7 bpm
same,ΔΔHR LS Mean,[5]; 5 H Post Dose,−0.0 bpm
same,ΔΔHR LS Mean,[5]; 6 H Post Dose,−1.3 bpm
same,ΔΔHR LS Mean,[5]; 8 H Post Dose,0.7 bpm
same,ΔΔHR LS Mean,[5]; 12 H Post Dose,−1.9 bpm
same,ΔΔHR LS Mean,[5]; 24 H Post Dose,−0.1 bpm
same,ΔΔHR LS Mean,[5]; 36 H Post Dose,−0.3 bpm
same,ΔΔHR LS Mean,[5]; 48 H Post Dose,0.8 bpm
same,"Subjects with QTcF >450 and <=480 ms, number",healthy subjects; [7],6
same,"Subjects with QTcF >450 and <=480 ms, percent",healthy subjects; [7],(11.8%)
same,"Subjects with QTcF >480 and <=500 ms, number",healthy subjects; [7],0
same,"Subjects with QTcF >500 ms, number",healthy subjects; [7],0
same,"Time points with QTcF >450 and <=480 ms, number",healthy subjects; [8],19
same,"Time points with QTcF >450 and <=480 ms, percent",healthy subjects; [8],(2.5%)
same,"Time points with QTcF >480 and <=500 ms, number",healthy subjects; [8],0
same,"Time points with QTcF >500 ms, number",healthy subjects; [8],0
same,subjects with QTcF >450 and <480 ms,"healthy subjects; 400 mg moxifloxacin, at 19 time points",6 subject(s)
same,"QTcF outliers per change-from-baseline category: QTcF >30 and <=60 ms, subjects",healthy subjects; [9],0
same,"QTcF outliers per change-from-baseline category: QTcF >60 ms, subjects",healthy subjects; [9],0
same,"QTcF outliers per change-from-baseline category: QTcF >30 and <=60 ms, time points",healthy subjects; [10],0
same,"QTcF outliers per change-from-baseline category: QTcF >60 ms, time points",healthy subjects; [10],0
same,subjects with treatment-emergent inverted T waves,"healthy subjects; moxifloxacin treatment period, at 1 time point",1 subject
same,peak LS mean ΔΔQTcF,"[6]; 400 mg oral moxifloxacin, 3 hours post-dose",13.3 ms
same,ΔΔQTcF LS Mean,[6]; 0.5 H Post Dose,5.8 ms
same,ΔΔQTcF LS Mean,[6]; 1 H Post Dose,12.2 ms
same,ΔΔQTcF LS Mean,[6]; 1.5 H Post Dose,10.9 ms
same,ΔΔQTcF LS Mean,[6]; 2 H Post Dose,11.3 ms
same,ΔΔQTcF LS Mean,[6]; 2.5 H Post Dose,11.7 ms
same,ΔΔQTcF LS Mean,[6]; 3 H Post Dose,13.3 ms
same,ΔΔQTcF LS Mean,[6]; 4 H Post Dose,12.1 ms
same,ΔΔQTcF LS Mean,[6]; 5 H Post Dose,10.3 ms
same,ΔΔQTcF LS Mean,[6]; 6 H Post Dose,7.5 ms
same,ΔΔQTcF LS Mean,[6]; 8 H Post Dose,8.9 ms
same,ΔΔQTcF LS Mean,[6]; 12 H Post Dose,8.2 ms
same,ΔΔQTcF LS Mean,[6]; 24 H Post Dose,4.0 ms
same,ΔΔQTcF LS Mean,[6]; 36 H Post Dose,3.0 ms
same,ΔΔQTcF LS Mean,[6]; 48 H Post Dose,2.6 ms
